# Experiments:
# human SGLT1 = target: T1, human SGLT1 (Homo sapiens, UniProt P13866); assay: SGLT1 assay: Na-dependent 14C-AMG uptake in CHO-K1 cells stably expressing human SGLT1; assay type: cell-based; details: for IC50: 500 μM AMG, 2 hours at 37° C.
# T1 construct: expressed in transfected cells; host or cells: CHO-K1
# T1 sequence (P13866 1-664): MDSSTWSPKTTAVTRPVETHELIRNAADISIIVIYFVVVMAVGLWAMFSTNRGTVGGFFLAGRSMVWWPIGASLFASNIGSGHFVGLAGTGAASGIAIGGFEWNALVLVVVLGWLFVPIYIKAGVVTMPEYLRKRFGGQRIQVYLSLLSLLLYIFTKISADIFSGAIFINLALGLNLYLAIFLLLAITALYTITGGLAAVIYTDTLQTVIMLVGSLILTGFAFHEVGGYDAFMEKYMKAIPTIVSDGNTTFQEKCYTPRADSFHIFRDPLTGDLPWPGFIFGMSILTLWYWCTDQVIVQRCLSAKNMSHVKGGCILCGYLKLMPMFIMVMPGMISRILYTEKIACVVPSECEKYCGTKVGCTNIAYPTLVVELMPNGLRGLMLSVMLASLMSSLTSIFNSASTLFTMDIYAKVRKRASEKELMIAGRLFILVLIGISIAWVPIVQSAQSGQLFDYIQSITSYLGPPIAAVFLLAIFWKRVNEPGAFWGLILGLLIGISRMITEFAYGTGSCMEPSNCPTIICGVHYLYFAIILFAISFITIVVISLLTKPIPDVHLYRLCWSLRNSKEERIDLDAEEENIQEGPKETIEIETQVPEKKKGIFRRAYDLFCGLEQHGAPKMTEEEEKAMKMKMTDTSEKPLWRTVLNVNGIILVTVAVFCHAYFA
# Description: (§1) SGLT1 and SGLT2 were cloned in form of cDNA from human small intestine (Genbank M24847), and from human kidney (Genbank M95549), respectively. Subsequently, each full cDNA was subcloned into pcDNA with each construct's integrity verified through follow-on sequencing. To generate CHO-K1 cells that stably express human SGLT1 or human SGLT2, CHO-K1 cells were transfected using DMRIE-C reagent (Life Technologies, Gaithersburg, Md.). Transfected cells were then selected in the presence of 500 μg/ml of the Geneticin (G418 Cellgro Catalog No. 30234-CI)
# (§2) Individual clones were then characterized using the following cell-based assay for sodium-dependent glucose transport:
# (§3) Inhibition of SGLT1 and SGLT2 activity was assessed in CHO K1 cells stably expressing either human SGLT1 or SGLT2, using the SGLT specific glucose analog methyl-glucopyranoside (Sigma Catalog No. M-9376). Cells were plated (45,000 cells/well) in white wall 96-well plates (COSTAR, Cat#3903) for 24 hours in growth medium, then a final concentration of 10 mM Na-Butyrate (ALDRICH Cat#30341-0) was added. The cells were incubated for 24 hours. On the day of the assay, cells were rinsed and treated with test compounds (at concentrations of 0.001 μM to 10 μM) in assay buffer (50 mM HEPES, 20 mM Tris base, 5 mM KCl, 1 mM MgCl2, 1 mM CaCl2 and 137 mM NaCl, pH 7.4) for 10 minutes. Cells were then incubated with ^14C-a-methyl-d-glucopyranoside (AMG, Amersham Catalog No. CFB 76), using 0.07 μCi per well in 500 μM AMG final concentration. The cells were incubated for 2 hours at 37° C. with 5% CO2 and washed two times with ice-cold Phosphate Buffer Solution (Cellgro Catalog No. 21030-CV). The cells were then solubilized by adding 60 μl of MICROSCINT™20 and the Na-dependent ^14C-AMG uptake was quantified by measuring radioactivity. Plates were counted in a TopCount (Packard, Meriden, Conn.)
# human SGLT2 = target: T2, human SGLT2 (Homo sapiens, UniProt P31639); assay: SGLT2 assay: Na-dependent 14C-AMG uptake in CHO-K1 cells stably expressing human SGLT2; assay type: cell-based; details: for IC50: 500 μM AMG, 2 hours at 37° C.
# T2 construct: expressed in transfected cells; host or cells: CHO-K1
# T2 sequence (P31639 1-672): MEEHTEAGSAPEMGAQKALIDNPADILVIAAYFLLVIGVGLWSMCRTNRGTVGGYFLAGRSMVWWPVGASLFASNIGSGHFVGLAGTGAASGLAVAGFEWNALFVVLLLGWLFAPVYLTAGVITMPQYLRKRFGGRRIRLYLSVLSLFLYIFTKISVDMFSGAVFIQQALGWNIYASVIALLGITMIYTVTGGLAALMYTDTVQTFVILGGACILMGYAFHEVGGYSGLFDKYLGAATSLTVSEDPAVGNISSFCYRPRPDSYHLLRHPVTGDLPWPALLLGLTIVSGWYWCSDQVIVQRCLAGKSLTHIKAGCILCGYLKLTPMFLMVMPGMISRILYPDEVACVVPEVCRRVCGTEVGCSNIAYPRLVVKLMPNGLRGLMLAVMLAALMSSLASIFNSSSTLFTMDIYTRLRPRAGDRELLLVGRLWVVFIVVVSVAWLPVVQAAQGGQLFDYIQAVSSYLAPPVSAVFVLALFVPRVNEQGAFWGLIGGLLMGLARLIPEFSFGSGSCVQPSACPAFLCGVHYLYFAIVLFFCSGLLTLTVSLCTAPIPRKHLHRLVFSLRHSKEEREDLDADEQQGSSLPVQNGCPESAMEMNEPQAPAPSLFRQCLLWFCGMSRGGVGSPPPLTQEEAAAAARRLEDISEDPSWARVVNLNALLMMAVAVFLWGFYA
# Description: as §1, §2, §3
SMILES,inhibition at 0.3 µM (human SGLT1) [%],inhibition at 0.03 µM (human SGLT2) [%],IC50 (human SGLT1) [nM],IC50 (human SGLT2) [nM]
"COc1cc(F)c(Cc2ccc3c(c2)CC3)cc1[C@@H]1O[C@H](CO)[C@@H](O)[C@H](O)[C@H]1O [Compound 20, (2S,3R,4R,5S,6R)-2-(5-((1,2-dihydrocyclobutabenzen-4-yl)methyl)-4-fluoro-2-methoxyphenyl)-6-(hydroxymethyl)-tetrahydro-2H-pyran-3,4,5-triol]",24,77,–,–
"OC[C@H]1O[C@@H](c2cc(Cc3ccc4c(c3)CC4)c(Cl)cc2OCF)[C@H](O)[C@@H](O)[C@@H]1O [Compound 40, (2S,3R,4R,5S,6R)-2-(4-chloro-5-((1,2-dihydrocyclobutabenzen-4-yl)methyl)-2-(fluoromethoxy)phenyl)-6-(hydroxymethyl)-tetrahydro-2H-pyran-3,4,5-triol]",–,–,149,1
"OC[C@H]1O[C@@H](c2ccc(Cl)c(Cc3ccc4c(c3)CC4)c2)[C@H](O)[C@@H](O)[C@@H]1O [Compound 2, (2S,3R,4R,5S,6R)-2-(4-chloro-3-((1,2-dihydrocyclobutabenzen-4-yl)methyl)phenyl)-6-(hydroxymethyl)-tetrahydro-2H-pyran-3,4,5-triol]",–,–,45,1
"OC[C@H]1O[C@@H](c2cc(Cc3ccc4c(c3)CC4)c(Cl)cc2F)[C@H](O)[C@@H](O)[C@@H]1O [Compound 30, (2S,3R,4R,5S,6R)-2-(4-chloro-5-((1,2-dihydrocyclobutabenzen-4-yl)methyl)-2-fluorophenyl)-6-(hydroxymethyl)-tetrahydro-2H-pyran-3,4,5-triol]",–,–,206,3
"Cc1cc(OC(F)F)c([C@@H]2O[C@H](CO)[C@@H](O)[C@H](O)[C@H]2O)cc1Cc1ccc2c(c1)CC2 [Compound 36, 2S,3R,4R,5S,6R)-2-(5-([bicyclo[4.2.0]octa-1(6),2,4-trien-3-ylmethyl]-2-(difluoromethoxy)-4-methylphenyl)-6-(hydroxymethyl)oxane-3,4,5-triol]",26,84,–,–
CCOc1cc(OC)c(Cc2ccc3c(c2)CC3)cc1[C@@H]1O[C@H](CO)C(F)(F)[C@H](O)[C@H]1O [Compound 109],–,–,158,5
Cc1cc(O)c([C@@H]2O[C@H](CO)[C@@H](F)[C@H](O)[C@H]2O)cc1Cc1ccc2c(c1)CC2 [Compound 130],–,–,15,1
"[2H]C([2H])(c1ccc2c(c1)CC2)c1cc([C@@H]2O[C@H](CO)[C@@H](O)[C@H](O)[C@H]2O)ccc1Cl (single isomer, unassigned) [Compound 54]",–,–,63,1
COc1cc(O)c([C@@H]2O[C@H](CO)C(F)(F)[C@H](O)[C@H]2O)cc1Cc1ccc2c(c1)CC2 [Compound 107],–,–,10,1
"[2H]C([2H])(c1ccc2c(c1)CC2)c1cc([C@@H]2O[C@H](CO)[C@@H](O)[C@H](O)[C@H]2O)ccc1CC [Compound 58, (2S,3R,4R,5S,6R)-2-(3-[bicyclo[4.2.0]octa-(6),2,4-trien-3-yl(dideuterium)methyl]-4-ethylphenyl)-6-(hydroxymethyl)oxane-3,4,5-triol]",–,–,25,2
COc1cc(Cl)c(Cc2ccc3c(c2)CC3)cc1[C@@H]1O[C@H](CO)[C@@H](F)[C@H](O)[C@H]1O [Compound 133],–,–,15,1
[2H]C([2H])([2H])Oc1cc(OC)c(Cc2ccc3c(c2)CC3)cc1[C@@H]1O[C@H](CO)[C@@H](O)[C@H](O)[C@H]1O [Compound 112],–,–,24,2
COc1cc(Cl)c(Cc2ccc3c(c2)CC3)cc1[C@@H]1O[C@H](CO)[C@@H](O)[C@H](O)[C@H]1O [Compound 9],–,–,53,1
"[2H]C1([2H])Cc2ccc(Cc3cc([C@@H]4O[C@H](CO)[C@@H](O)[C@H](O)[C@H]4O)c(F)cc3OC)cc21 [Compound 72, (2S,3R,4R,5S,6R)-2-{5-[(8,8-dideuterio)bicyclo[4.2.0]octa-1(6),2,4-trien-3-ylmethyl]-2-fluoro-4-methoxyphenyl}-6-(hydroxymethyl)oxane-3,4,5-triol]",–,–,24,3
COc1cc(Cl)c(Cc2ccc3c(c2)CC3)cc1[C@@H]1O[C@H](CO)C(F)(F)[C@H](O)[C@H]1O [Compound 103],–,–,13,2
"OC[C@H]1O[C@@H](c2cc(Cc3ccc4c(c3)CC4)ccc2O)[C@H](O)[C@@H](O)[C@@H]1O [Compound 25, (2S,3R,4R,5S,6R)-2-(5-{bicyclo[4.2.0]octa-1(6),2,4-trien-3-ylmethyl}-2-hydroxyphenyl)-6-(hydroxymethyl)oxane-3,4,5-triol]",36,71,–,–
"[2H]C1([2H])Cc2ccc(Cc3cc([C@@H]4O[C@H](CO)[C@@H](O)[C@H](O)[C@H]4O)c(OC)cc3C)cc21 [Compound 63, (2S,3R,4R,5S,6R)-2-(5-((2,2-dideuterium-1,2-dihydrocyclobutabenzen-4-yl)methyl)-2-methoxy-4-methylphenyl)-6-(hydroxymethyl)-tetrahydro-2H-pyran-3,4,5-triol]",–,–,84,1
"[2H]C1([2H])Cc2cc(Cc3cc([C@@H]4O[C@H](CO)[C@@H](O)[C@H](O)[C@H]4O)ccc3CC)ccc21 [Compound 87, (2S,3R,4R,5S,6R)-2-(3-((1,1-dideuterium-1,2-dihydrocyclo-butabenzen-4-yl)methyl)-4-ethylphenyl)-6-(hydroxymethyl)-tetrahydro-2H-pyran-3,4,5-triol]",–,–,18,2
CCc1cc(O)c([C@@H]2O[C@H](CO)[C@@H](F)[C@H](O)[C@H]2O)cc1Cc1ccc2c(c1)CC2 [Compound 127],–,–,1,2
"COc1cc(OCF)c([C@@H]2O[C@H](CO)[C@@H](O)[C@H](O)[C@H]2O)cc1Cc1ccc2c(c1)CC2 [Compound 41, (2S,3R,4R,5S,6R)-2-(5-((1,2-dihydrocyclobutabenzen-4-yl)methyl)-2-(fluoromethoxy)-4-methoxyphenyl)-6-(hydroxymethyl)-tetrahydro-2H-pyran-3,4,5-triol]",–,–,106,18
"[2H]C([2H])(c1ccc2c(c1)CC2)c1cc([C@@H]2O[C@H](CO)[C@@H](O)[C@H](O)[C@H]2O)c(OC)cc1C [Compound 53, (2S,3R,4R,5S,6R)-2-(5-(dideuterium(1,2-dihydrocyclobutabenzen-4-yl)methyl)-2-methoxy-4-methylphenyl)-6-(hydroxymethyl)-tetrahydro-2H-pyran-3,4,6-triol]",–,–,80,1
